Source: patent publication US20120202794A1 (priority 2011, published 2012)

Key:
[1] = Cell cytotoxicity assay (MTS), CC90 as reported in Table 1, cell line not stated; type: cell-based; conditions: human; MTS assay; 8 days incubation; cell line not given
Summary of the method: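 Compounds, serially diluted from 100 μM, were incubated 8 days at 37° C with Huh7, HepG2 or BxPC3 (2×10^3 cells/well) or CEM (5×10^3 cells/well). Viability was read by MTS, 2 h, absorbance 490 nm. CC90 (90% inhibition) was taken against untreated cells.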

HCV Replicon 1b = test: HCV inhibition assay, HCV replicon 1b (Clone A or ET-lunet cells; RT-PCR or luciferase reporter); type: cell-based; conditions: Hepatitis C virus, 96 h, HCV replicon 1b; 4 days incubation; read-out: Replicon 1b potency EC90
Summary of the method: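 Clone A (1500/well) or ET-lunet (3000/well) replicon cells treated with serially diluted compounds (0.5% DMSO, no G418) for 4 days at 37 °C. HCV RNA measured by one-step RT-PCR normalized to rRNA (ΔΔCt) or by luciferase luminescence versus DMSO controls; EC50/EC90 by curve fitting.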

Row | SMILES | CC90 at 8 days [1] [nM] | EC90 (HCV Replicon 1b) [nM]
1 | CC(C)C[C@H]1C(=O)N[C@@H](c2ccccc2F)CN1C(=O)c1noc(-c2ccc(F)cc2F)c1F [Compound 386, (3S,6S)-4-(5-(2,4-difluorophenyl)-4-fluoroisoxazole-3-carbonyl)-6-(2-fluorophenyl)-3-isobutylpiperazin-2-one] | > 10000 | 570
2 | CCC[C@H]1CN(C(=O)c2noc(-c3ccc(F)cc3F)c2F)[C@@H](CC(C)C)C(=O)N1 [Compound 387, (3S,6S)-4-(5-(2,4-difluorophenyl)-4-fluoroisoxazole-3-carbonyl)-3-isobutyl-6-propylpiperazin-2-one] | > 10000 | 260
3 | CC(C)C[C@H]1C(=O)N[C@@H](C2CCCC2)CN1C(=O)c1noc(-c2ccc(F)cc2F)c1F [Compound 388, (3S,6S)-6-cyclopentyl-4-(5-(2,4-difluorophenyl)-4-fluoroisoxazole-3-carbonyl)-3-isobutylpiperazin-2-ono] | > 10000 | 670
4 | CC(C)C[C@H]1C(=O)N[C@@H](C2CCCCC2)CN1C(=O)c1noc(-c2ccc(F)cc2F)c1F [Compound 389, (3S,6S)-6-cyclohexyl-4-(5-(2,4-difluorophenyl)-4-fluoroisoxazole-3-carbonyl)-3-isobutylpiperazin-2-one] | > 10000 | 1450
5 | CC(C)C[C@H]1C(=O)N[C@@H](c2ccccc2)CN1C(=O)c1noc(-c2ccc(F)c(F)c2)c1F [Compound 390, (3S,6S)-4-(5-(3,4-difluorophenyl)-4-fluoroisoxazole-3-carbonyl)-3-isobutyl-6-phenylpiperazin-2-one] | > 10000 | 2050
6 | CC(C)C[C@H]1C(=O)N[C@@H](c2ccccc2F)CN1C(=O)c1noc(-c2ccc(F)c(F)c2)c1F [Compound 392, (3S,6S)-4-(5-(3,4-difluorophenyl)-4-fluoroisoxazole-3-carbonyl)-6-(2-fluorophenyl)-3-isobutylpiperazin-2-one] | > 10000 | 1910
7 | CCC[C@H]1CN(C(=O)c2noc(-c3ccc(F)c(F)c3)c2F)[C@@H](CC(C)C)C(=O)N1 [Compound 393, (3S,6S)-4-(5-(3,4-difluorophenyl)-4-fluoroisoxazole-3-carbonyl)-3-isobutyl-6-propylpiperazin-2-one] | > 10000 | 260
8 | CC(C)C[C@H]1CN(C(=O)c2noc(-c3ccc(F)c(F)c3)c2F)[C@@H](CC(C)C)C(=O)N1 [Compound 394, (3S,6S)-4-(5-(3,4-difluorophenyl)-4-fluoroisoxazole-3-carbonyl)-3,6-diisobutyl-piperazin-2-one] | > 10000 | 660
9 | CC(C)C[C@H]1C(=O)N[C@@H](C2CCCC2)CN1C(=O)c1noc(-c2ccc(F)c(F)c2)c1F [Compound 395, (3S,6S)-6-cyclopentyl-4-(5-(3,4-difluorophenyl)-4-fluoroisoxazole-3-carbonyl)-3-isobutylpiperazin-2-one] | > 10000 | 1020
10 | CC(C)C[C@H]1C(=O)N[C@@H](C2CCCCC2)CN1C(=O)c1noc(-c2ccc(F)c(F)c2)c1F [Compound 396, (3S,6S)-6-cyclohexyl-4-(5-(3,4-difluorophenyl)-4-fluoroisoxazole-3-carbonyl)-3-isobutylpiperazin-2-one] | > 10000 | 1820
11 | CCC[C@H]1C(=O)N[C@@H](c2ccccc2)CN1C(=O)c1cc(-c2ccc(F)cc2)on1 [Compound 397, (3S,6S)-4-(5-(4-fluorophenyl)isoxazole-3-carbonyl)-6-phenyl-3-propylpiperazin-2-one] | > 10000 | 890
12 | CCC[C@H]1C(=O)N[C@@H](c2ccccc2)CN1C(=O)[C@@H]1C[C@H]1c1ccccc1 [Compound 399, (3S,6S)-6-phenyl-4-((1R,2R)-2-phenylcyclopropanecarbonyl)-3-propylpiperazin-2-one] | > 10000 | 2070
13 | CC(C)[C@H]1C(=O)N[C@@H](c2ccccc2)CN1C(=O)c1cc(-c2ccc(F)cc2)on1 [Compound 400, (3S,6S)-4-(5-(4-fluorophenyl)isoxazole-3-carbonyl)-3-isopropyl-6-phenylpiperazin-2-one] | > 10000 | 970
14 | CC(C)[C@H]1C(=O)N[C@@H](c2ccccc2)CN1C(=O)[C@@H]1C[C@H]1c1ccccc1 [Compound 402, (3S,6S)-3-isopropyl-6-phenyl-4-((1R,2R)-2-phenylcyclopropanecarbonyl)piperazin-2-one] | > 10000 | 6630
15 | CC(C)[C@H]1C(=O)N[C@@H](c2ccccc2)CN1C(=O)c1noc(-c2ccc(F)cc2)n1 [Compound 403, (3S,6S)-4-(5-(4-fluorophenyl)-1,2,4-oxadiazole-3-carbonyl)-3-isopropyl-6-phenyl-piperazin-2-ono] | > 10000 | 270
16 | CC(C)[C@H]1C(=O)N[C@@H](c2ccccc2)CN1C(=O)c1nc(-c2ccc(F)cc2)no1 [Compound 404, (3S,6S)-4-(3-(4-fluorophenyl)-1,2,4-oxadiazole-5-carbonyl)-3-isopropyl-6-phenyl-piperazin-2-one] | > 10000 | 1580
17 | CC(C)C[C@H]1CN(C(=O)c2noc(-c3ccc(Cl)cc3)n2)[C@@H](CC(C)C)C(=O)N1 [Compound 405, (3S,6S)-4-(5-(4-chlorophenyl)-1,2,4-oxadiazole-3-carbonyl)-3,6-diisobutylpiperazin-2-one] | > 10000 | 320
18 | CC(C)C[C@H]1C(=O)N[C@@H](c2ccccc2)CN1C(=O)c1noc(-c2ccc(Cl)cc2)n1 [Compound 406, (3S,6S)-4-(5-(4-chlorophenyl)-1,2,4-oxadiazole-3-carbonyl)-3-isobutyl-6-phenyl-piperazin-2-one] | > 10000 | 230
19 | C=CC[C@H]1C(=O)N[C@@H](c2ccccc2)CN1C(=O)c1cc(-c2ccc(F)cc2)on1 [Compound 407, (3S,6S)-3-allyl-4-(5-(4-fluorophenyl)isoxazole-3-carbonyl)-6-phenylpiperazin-2-one] | > 10000 | 740
20 | C=CC[C@H]1C(=O)N[C@@H](CCC)CN1C(=O)c1cc(-c2ccc(F)cc2)on1 [Compound 409, (3S,6S)-3-allyl-4-(5-(4-fluorophenyl)isoxazole-3-carbonyl)-6-propylpiperazin-2-one] | > 10000 | 1880
21 | CC(C)C[C@H]1CCN(C(=O)c2cc(-c3ccc(F)cc3)on2)[C@@H](CC(C)C)C(=O)N1 [Compound 411, (3S,7S)-4-(5-(4-fluorophenyl)isoxazole-3-carbonyl)-3,7-diisobutyl-1,4-diazepan-2-one] | > 10000 | > 10000
22 | CC(C)CC1CNC(=O)[C@H](CC(C)C)N(C(=O)c2cc(-c3ccc(F)cc3)on2)C1 (stereo partly drawn) [Compound 413, (3S)-4-(5-(4-fluorophenyl)isoxazole-3-carbonyl)-3,6-diisobutyl-1,4-diazepan-2-one] | > 10000 | > 10000
23 | CC(C)C[C@H]1C(=O)N[C@H](c2ccccc2)CCN1C(=O)c1cc(-c2ccc(F)cc2)on1 [Compound 415, (3S,7S)-4-(5-(4-fluorophenyl)isoxazole-3-carbonyl)-3-isobutyl-7-phenyl-1,4-diazepan-2-one] | > 10000 | > 10000
24 | CC(C)C[C@H]1C(=O)N[C@H](c2ccccc2)CCN1C(=O)[C@@H]1C[C@H]1c1ccccc1 [Compound 417, (3S,75)-3-isobutyl-7-phenyl-4-((1R,2R)-2-phenylcyclopropanecarbonyl)-1,4-diazepan-2-one] | > 10000 | 7770
25 | CC(C)C[C@H]1C(=O)NC[C@H](c2ccccc2)CN1C(=O)[C@@H]1C[C@H]1c1ccccc1 [Compound 418, (3S,6S)-3-isobutyl-6-phenyl-4-((1R,2R)-2-phenylcyclopropanecarbonyl)-1,4-diazepan-2-one] | > 10000 | > 10000
26 | CC(C)C[C@H]1C(=O)NC[C@H](c2ccccc2)CN1C(=O)c1cc(-c2ccc(F)cc2)on1 [Compound 420, (3S,6S)-3-isobutyl-6-phenyl-4-(5-(4-fluorophenyl)isoxazole-3-carbonyl)-1,4-diazepan-2-one] | > 10000 | > 10000
27 | CC(C)C[C@H]1CN(C(=O)[C@H]2C[C@@H]2c2ccc(F)cc2F)[C@@H](CC(C)C)C(=O)N1 [Compound 421, (3S,6S)-4-[(1S,2S)-2-(2,4-Difluoro-phenyl)-cyclopropanecarbonyl]-3,6-diisobutyl-piperazin-2-one] | > 10000 | > 10000
28 | C/C=C/[C@H]1CN(C(=O)[C@@H]2C[C@H]2c2ccccc2)[C@@H](CC(C)C)C(=O)N1 [Compound 422, (3S,6S)-3-isobutyl-4-((1R,2R)-2-phenylcyclopropanecarbonyl)-6-((E)-prop-1-en-1-yl)piperazin-2-one] | > 10000 | 2100
29 | CC(C)C[C@H]1C(=O)N[C@H](c2cccs2)CN1C(=O)c1cc(-c2ccc(F)cc2)on1 [Compound 428, (3S,6S)-4-(5-(4-fluorophenyl)isoxazole-3-carbonyl)-3-isobutyl-6-(thiophen-2-yl)piperazin-2-one] | > 10000 | > 10000
30 | CC(C)C[C@H]1C(=O)N[C@@H](c2cccs2)CN1C(=O)c1nc(-c2ccc(F)cc2)no1 [Compound 431, (3S,6R)-4-(3-(4-fluorophenyl)-1,2,4-oxadiazole-5-carbonyl)-3-isobutyl-6-(thiophen-2-yl)piperazin-2-one] | > 10000 | 24
